Reference: PubChem BioAssay (NCI)
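Where inhibition never reached the appropriate level, the endpoint shown equals the highest concentration tested. Otherwise, values were interpolated linearly from a five-concentration, 48-hour dose response in 96-well plates. The concentration for 50% growth inhibition is given as GI50. TGI: concentration producing complete growth inhibition.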

Experiments:
Test in all cases: NCI anticancer screen, dose series, 48 h
HL-60(TB) leukemia = test system: HL-60(TB) leukemia
SF-268 CNS = test system: SF-268 CNS
OVCAR-8 ovarian = test system: OVCAR-8 ovarian
EKVX NSCLC = test system: EKVX NSCLC
COLO 205 colon = test system: COLO 205 colon
SR leukemia = test system: SR leukemia
ACHN renal = test system: ACHN renal
MCF7 breast = test system: MCF7 breast
HCC-2998 colon = test system: HCC-2998 colon
OVCAR-4 ovarian = test system: OVCAR-4 ovarian

SMILES | GI50 (HL-60(TB) leukemia) [µM] | TGI (HL-60(TB) leukemia) [µM] | GI50 (SF-268 CNS) [µM] | TGI (SF-268 CNS) [µM] | GI50 (OVCAR-8 ovarian) [µM] | TGI (OVCAR-8 ovarian) [µM] | GI50 (EKVX NSCLC) [µM] | TGI (EKVX NSCLC) [µM] | GI50 (COLO 205 colon) [µM] | TGI (COLO 205 colon) [µM] | GI50 (SR leukemia) [µM] | TGI (SR leukemia) [µM] | GI50 (ACHN renal) [µM] | TGI (ACHN renal) [µM] | GI50 (MCF7 breast) [µM] | TGI (MCF7 breast) [µM] | GI50 (HCC-2998 colon) [µM] | TGI (HCC-2998 colon) [µM] | GI50 (OVCAR-4 ovarian) [µM] | TGI (OVCAR-4 ovarian) [µM]
COc1cc(/C=C/C(=O)C(C(=O)/C=C/c2ccc(OC(=O)CCNc3nnc(C)s3)c(OC)c2)C(=O)CCNc2nnc(C)s2)ccc1OC(=O)CCNc1nnc(C)s1 | 1.77 | 3.93 | 2.64 | 11.2 | 2.93 | 16.7 | 3.8 | 14.8 | 2.57 | 6.94 | 1.18 | 3.31 | 2.28 | 5.22 | 2.16 | 12.6 | 1.77 | 3.2 | 4.76 | > 61.5
Cc1ccc(NSc2ccccc2[N+](=O)[O-])cc1 | 0.368 | 14.5 | 1.15 | 19.7 | 2.91 | 36.3 | 2.89 | 22.4 | 0.149 | 3.44 | 0.113 | 36 | 2.3 | 23.4 | 0.133 | 16.2 | 1.82 | 10.6 | 6.26 | 23.2
O[C@@H]1CCCN1Cc1cc2cc3c(cc2c2cc(OCc4ccccc4)ccc12)OCO3 | 1.94 | 4.13 | 4.78 | 20.1 | 3.93 | 17.6 | 11.6 | 27.3 | 1.7 | 3.46 | 2.63 | 7.08 | 8.37 | 22 | 2.15 | 5.07 | 1.85 | 3.76 | 5.45 | 20.3
COc1cc(Nc2ncc3c(C)nc(-c4cccc(Oc5ccccc5)c4)n3n2)cc(OC)c1OC | 6.01 | 14.1 | 6.6 | > 22.7 | 5.15 | > 25 | 11.2 | > 25 | 7.68 | > 25 | 5.99 | > 21.4 | 1.33 | 17.9 | 7.18 | > 24.1 | 5.15 | > 25 | 4.78 | > 25
CC1(C)N=C(N)N=C(N)N1c1ccc(OCC(=O)N2CCOCC2)c(Cl)c1 | 0.981 | > 100 | 0.759 | > 100 | 7.25 | > 100 | 2.29 | > 100 | 8.8 | > 100 | 0.568 | > 100 | > 100 | > 100 | 1.36 | > 100 | 9.78 | > 100 | > 100 | > 100
CNc1cccnc1/C=N/NC(N)=S |  | > 6.25 |  | > 10 |  | > 10 |  | > 10 |  | > 10 |  | > 10 |  | 1.76 |  | > 10 |  | > 10 |  | > 10
COc1cc(C2CC(c3ccc(Nc4ccnc5cc(Cl)ccc45)cc3)=NN2C=O)cc(OC)c1OC (stereo not given) | 2.53 | 7.4 | 28 | > 100 | 9.98 | > 100 | 11.7 | > 100 | 3.73 | 70.4 | 2.58 | 6.49 | 3.24 | 10.6 | 3.23 | > 100 | 5.52 | > 100 | 3.19 | 13.3
CC(C)(C)c1cn2cccc(C(=O)N3CCN(CC(=O)Nc4ccc(Cl)cc4C(=O)c4ccccc4Cl)CC3)c2n1 | > 100 | > 100 | 13 | 43.6 | 6.84 | 77.4 | 5.79 | 66.7 | 6.49 | 43.6 | > 100 | > 100 | 6.62 | 61.4 | 3.94 | 20.8 | 10.3 | 75.1 | 7.9 | > 100
CC(C)=CC(O)C/C(C)=C/CC/C(C)=C/CCC1(C)C(CCCO)/C(=C(/C)C=O)CCC1(C)O (stereo not given) |  | 43.7 |  | > 100 |  | > 100 |  | > 100 |  | > 100 |  | 83.3 |  | 43.6 |  | 79.2 |  | 68.2 |  | > 100
